Patent US8435980B2 (AbbVie Inc., priority 2009, dated 2013)

Molecular target: T1, Cdc7 (BEV coexpressed huCDC7/DBF4) (Homo sapiens, UniProt O00311)
T1 construct: made in house; host or cells: BEV (baculovirus expression vector) co-expression; insect cells are implied but no cell line is named
Test: Cdc7 enzyme inhibition assay ([33P]ATP, biotinylated peptide substrate, FlashPlate)
Type: biochemical
Settings: Table 3; enzyme inhibition data (Ki)
Protocol: Cdc7 (BEV coexpressed huCDC7/DBF4) is prepared internally. Cdc7 assays are conducted as follows with final concentrations as listed. […] Reactions are quenched after 1 hr by the addition of 90 μL stop buffer (50 mM EDTA, 2M NaCl). […] (Ki) for exemplary compounds.

T1 sequence (O00311 whole entry): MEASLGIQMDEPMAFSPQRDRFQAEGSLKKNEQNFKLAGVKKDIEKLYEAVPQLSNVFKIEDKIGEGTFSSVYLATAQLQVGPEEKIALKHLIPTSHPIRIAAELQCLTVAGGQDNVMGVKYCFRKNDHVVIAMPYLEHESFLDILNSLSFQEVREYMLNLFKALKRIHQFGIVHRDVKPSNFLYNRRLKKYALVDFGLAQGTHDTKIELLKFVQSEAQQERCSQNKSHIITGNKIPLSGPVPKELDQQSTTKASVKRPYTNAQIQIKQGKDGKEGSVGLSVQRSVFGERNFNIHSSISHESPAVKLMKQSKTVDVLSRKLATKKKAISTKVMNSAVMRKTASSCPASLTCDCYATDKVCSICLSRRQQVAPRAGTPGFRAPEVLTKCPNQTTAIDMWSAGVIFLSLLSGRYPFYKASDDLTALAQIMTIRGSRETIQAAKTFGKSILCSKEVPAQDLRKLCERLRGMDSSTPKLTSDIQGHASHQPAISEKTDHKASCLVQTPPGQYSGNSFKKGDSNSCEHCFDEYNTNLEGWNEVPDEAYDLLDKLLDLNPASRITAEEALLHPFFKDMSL
T1 sequence (Q9UBU7 whole entry partner): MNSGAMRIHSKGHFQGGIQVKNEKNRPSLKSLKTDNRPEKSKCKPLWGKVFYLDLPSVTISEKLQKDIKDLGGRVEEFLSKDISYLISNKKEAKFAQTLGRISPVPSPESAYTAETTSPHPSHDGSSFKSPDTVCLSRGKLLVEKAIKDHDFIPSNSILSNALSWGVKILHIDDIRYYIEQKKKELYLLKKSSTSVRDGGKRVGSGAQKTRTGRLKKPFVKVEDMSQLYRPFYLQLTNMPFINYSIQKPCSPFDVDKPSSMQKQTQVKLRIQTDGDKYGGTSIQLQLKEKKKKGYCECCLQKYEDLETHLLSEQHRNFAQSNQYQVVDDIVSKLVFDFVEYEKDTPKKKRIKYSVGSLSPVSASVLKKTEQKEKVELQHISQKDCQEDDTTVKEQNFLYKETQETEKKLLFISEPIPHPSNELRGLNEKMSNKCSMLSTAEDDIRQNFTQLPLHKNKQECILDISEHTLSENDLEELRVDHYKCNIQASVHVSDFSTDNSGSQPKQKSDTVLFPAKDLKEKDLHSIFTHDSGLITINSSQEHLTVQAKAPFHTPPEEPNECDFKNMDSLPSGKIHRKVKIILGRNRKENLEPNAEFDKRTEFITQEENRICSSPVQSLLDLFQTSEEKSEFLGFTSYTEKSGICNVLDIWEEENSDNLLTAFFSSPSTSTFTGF

`CS(=O)(=O)NCCS(=O)(=O)N[C@H]1CC[C@H](Nc2cc(-c3c[nH]c4ncccc34)cc(Cl)n2)CC1` [Example 194, N-(trans-4-{[6-chloro-4-(1H-pyrrolo[2,3-b]pyridin-3-yl)pyridin-2-yl]amino}cyclohexyl)-2-[(methylsulfonyl)amino]ethanesulfonamide] and `C=CCNC(=O)NCCS(=O)(=O)N[C@H]1CC[C@H](Nc2cc(-c3c[nH]c4ncccc34)cc(Cl)n2)CC1` [Example 208, N-(trans-4-{[6-chloro-4-(1H-pyrrolo[2,3-b]pyridin-3-yl)pyridin-2-yl]amino}cyclohexyl)-2-[(prop-2-en-1-ylcarbamoyl)amino}ethanesulfonamide] cannot be ordered by Ki: less than 10 nM for the first, less than 10 nM for the second.

`Clc1cc(-c2c[nH]c3ncc(OCCN4CCOCC4)cc23)cc(NC2CCCCC2)n1` [Example 195, 6-chloro-N-cyclohexyl-4-{5-[2-(morpholin-4-yl)ethoxy]-1H-pyrrolo[2,3-b]pyridin-3-yl}pyridin-2-amine] and `Cn1cncc1COc1cnc2[nH]cc(-c3cc(Cl)nc(NC4CCCCC4)c3)c2c1` [Example 196, 6-chloro-N-cyclohexyl-4-{5-[(1-methyl-1H-imidazol-5-yl)methoxy]-1H-pyrrolo[2,3-b]pyridin-3-yl}pyridin-2-amine] cannot be ordered by Ki: less than 10 nM for the first, less than 10 nM for the second.

`CN1CCC(C2CCC(Nc3cc(-c4c[nH]c5ncccc45)cc(Cl)n3)CC2)C1` (stereo not drawn) [Example 197, 6-chloro-N-[4-(1-methylpyrrolidin-3-yl)cyclohexyl]-4-(1H-pyrrolo[2,3-b]pyridin-3-yl)pyridin-2-amine] and `CS(=O)(=O)N1CCC(C2CCC(Nc3cc(-c4c[nH]c5ncccc45)cc(Cl)n3)CC2)C1` (stereo not drawn) [Example 199, 6-chloro-N-{4-[1-(methylsulfonyl)pyrrolidin-3-yl]cyclohexyl}-4-(1H-pyrrolo[2,3-b]pyridin-3-yl)pyridin-2-amine] cannot be ordered by Ki: less than 10 nM for the first, less than 10 nM for the second.

`Fc1ccc(CN2CCC(C3CCC(Nc4cc(-c5c[nH]c6ncccc56)cc(Cl)n4)CC3)C2)cc1` (stereo not drawn) [Example 198, 6-chloro-N-{4-[1-(4-fluorobenzyl)pyrrolidin-3-yl]cyclohexyl}-4-(1H-pyrrolo[2,3-b]pyridin-3-yl)pyridin-2-amine] and `O=C(N[C@H]1CC[C@H](Nc2cc(-c3c[nH]c4ncccc34)cc(Cl)n2)CC1)C1CN(Cc2ccc(Cl)cc2)C1` [Example 207, 1-(4-chlorobenzyl)-N-(trans-4-{[6-chloro-4-(1H-pyrrolo[2,3-b]pyridin-3-yl)pyridin-2-yl]amino}cyclohexyl)azetidine-3-carboxamide] cannot be ordered by Ki: less than 10 nM for the first, less than 10 nM for the second.

`Clc1cc(-c2c[nH]c3ncccc23)cc(NC2CCN(C3CCC(NC4CCC4)CC3)CC2)n1` (stereo not drawn) [Example 200, 6-chloro-N-{1-[4-(cyclobutylamino)cyclohexyl]piperidin-4-yl}-4-(1H-pyrrolo[2,3-b]pyridin-3-yl)pyridin-2-amine] and `Cn1ccc(CN2CC(C(=O)N[C@H]3CC[C@H](Nc4cc(-c5c[nH]c6ncccc56)cc(Cl)n4)CC3)C2)n1` [Example 211, N-(trans-4-{[6-chloro-4-(1H-pyrrolo[2,3-b]pyridin-3-yl)pyridin-2-yl]amino}cyclohexyl)-1-[(1-methyl-1H-pyrazol-3-yl)methyl]azetidine-3-carboxamide] cannot be ordered by Ki: less than 10 nM for the first, less than 10 nM for the second.

First: N#Cc1cnc2[nH]cc(-c3cc(Cl)nc(NC4CCCCC4)c3)c2c1 [Example 201, 3-[2-chloro-6-(cyclohexylamino)pyridin-4-yl]-1-1H-pyrrolo[2,3-b]pyridine-5-carbonitrile]
Second: Cc1cnc2[nH]cc(-c3cc(Cl)nc(NC4CCCCC4)c3)c2c1 [Example 204, 6-chloro-N-cyclohexyl-4-(5-methyl-1H-pyrrolo[2,3-b]pyridin-3-yl)pyridin-2-amine]
The Ki of the first is higher: 10 to 100 nM for the first, less than 10 nM for the second. The second binds more tightly here.

`O=C(N[C@H]1CC[C@H](Nc2cc(-c3c[nH]c4ncccc34)cc(Cl)n2)CC1)c1ccc(F)cc1F` [Example 202, N-(trans-4-{[6-chloro-4-(1H-pyrrolo[2,3-b]pyridin-3-yl)pyridin-2-yl]amino}cyclohexyl)-2,4-difluorobenzamide] and `O=C(N[C@H]1CC[C@H](Nc2cc(-c3c[nH]c4ncccc34)cc(Cl)n2)CC1)C1CN(Cc2ccc(F)cc2F)C1` [Example 210, N-(trans-4-{[6-chloro-4-(1H-pyrrolo[2,3-b]pyridin-3-yl)pyridin-2-yl]amino}cyclohexyl)-1-(2,4-difluorobenzyl)azetidine-3-carboxamide] cannot be ordered by Ki: less than 10 nM for the first, less than 10 nM for the second.

Compared with `O=C(N[C@H]1CC[C@H](Nc2cc(-c3c[nH]c4ncccc34)cc(Cl)n2)CC1)c1ccc(OC(F)(F)F)cc1` [Example 203, N-(trans-4-{[6-chloro-4-(1H-pyrrolo[2,3-b]pyridin-3-yl)pyridin-2-yl]-amino}cyclohexyl)-4-(trifluoromethoxy)benzamide], `O=C(N[C@H]1CC[C@H](Nc2cc(-c3c[nH]c4ncccc34)cc(Cl)n2)CC1)C1CN(Cc2cccnc2)C1` [Example 209, N-(trans-4-{[6-chloro-4-(1H-pyrrolo[2,3-b]pyridin-3-yl)pyridin-2-yl]amino}cyclohexyl)-1-(pyridin-3-ylmethyl)azetidine-3-carboxamide] is lower in Ki: 10 to 100 nM for the first, less than 10 nM for the second. The second binds more tightly here.

`Clc1cc(-c2c[nH]c3ncccc23)cc(Nc2ccccc2)n1` [Example 205, 6-chloro-N-phenyl-4-(1H-pyrrolo[2,3-b]pyridin-3-yl)pyridin-2-amine] and `Clc1cc(-c2c[nH]c3ncc(-c4cccnc4)cc23)cc(NC2CCCCC2)n1` [Example 214, 6-chloro-N-cyclohexyl-4-[5-(pyridin-3-yl)-1H-pyrrolo[2,3-b]pyridin-3-yl]pyridin-2-amine] cannot be ordered by Ki: less than 10 nM for the first, less than 10 nM for the second.

`COc1cc(N2CCC(N3CCN(C)CC3)CC2)ccc1Nc1cc(-c2c[nH]c3ncccc23)cc(Cl)n1` [Example 206, 6-chloro-N-{2-methoxy-4-[4-(4-methylpiperazin-1-yl)piperidin-1-yl]phenyl}-4-(1H-pyrrolo[2,3-b]pyridin-3-yl)pyridin-2-amine] and `CN1CCN(Cc2cccc(-c3cnc4[nH]cc(-c5cc(Cl)nc(NC6CCCCC6)c5)c4c3)c2)CC1` [Example 221, 6-chloro-N-cyclohexyl-4-(5-{3-[(4-methylpiperazin-1-yl)methyl]phenyl}-1H-pyrrolo[2,3-b]pyridin-3-yl)pyridin-2-amine] cannot be ordered by Ki: less than 10 nM for the first, less than 10 nM for the second.

First: OCCn1cc(-c2cnc3[nH]cc(-c4cc(Cl)nc(NC5CCCCC5)c4)c3c2)cn1 [Example 212, 2-(4-{3-[2-chloro-6-(cyclohexylamino)pyridin-4-yl]-1H-pyrrolo[2,3-b]pyridin-5-yl}-1H-pyrazol-1-yl)ethanol]
Second: Clc1cc(-c2c[nH]c3ncc(-c4ccsc4)cc23)cc(NC2CCCCC2)n1 [Example 215, 6-chloro-N-cyclohexyl-4-[5-(thiophen-3-yl)-1H-pyrrolo[2,3-b]pyridin-3-yl]pyridin-2-amine]
The Ki of the first is lower: less than 10 nM for the first, 10 to 100 nM for the second.

`COc1cnc2[nH]cc(-c3cc(Cl)nc(N[C@H]4CC[C@H](N)CC4)c3)c2c1` [Example 213, trans-N-[6-chloro-4-(5-methoxy-1H-pyrrolo[2,3-b]pyridin-3-yl)pyridin-2-yl]cyclohexane-1,4-diamine] and `CCOc1cnc2[nH]cc(-c3cc(Cl)nc(N[C@H]4CC[C@H](N)CC4)c3)c2c1` [Example 224, trans-N-[6-chloro-4-(5-ethoxy-1H-pyrrolo[2,3-b]pyridin-3-yl)pyridin-2-yl]cyclohexane-1,4-diamine] cannot be ordered by Ki: less than 10 nM for the first, less than 10 nM for the second.

`COc1cnc2[nH]cc(-c3cc(Cl)nc(N[C@H]4CC[C@H](NC(=O)C5CC5)CC4)c3)c2c1` [Example 216, N-(trans-4-{[6-chloro-4-(5-methoxy-1H-pyrrolo[2,3-b]pyridin-3-yl)pyridin-2-yl]amino}cyclohexyl)cyclopropanecarboxamide] and `CNCC(=O)N[C@H]1CC[C@H](Nc2cc(-c3c[nH]c4ncc(OC)cc34)cc(Cl)n2)CC1` [Example 227, N-(trans-4-{[6-chloro-4-(5-methoxy-1H-pyrrolo[2,3-b]pyridin-3-yl)pyridin-2-yl]amino}cyclohexyl)-N^2-methylglycinamide] cannot be ordered by Ki: less than 10 nM for the first, less than 10 nM for the second.

`COc1cnc2[nH]cc(-c3cc(Cl)nc(N[C@H]4CC[C@H](NC(=O)C5CN(Cc6ccccc6)C5)CC4)c3)c2c1` [Example 217, 1-benzyl-N-(trans-4-{[6-chloro-4-(5-methoxy-1H-pyrrolo[2,3-b]pyridin-3-yl)pyridin-2-yl]amino}cyclohexyl)azetidine-3-carboxamide] and `COc1cnc2[nH]cc(-c3cc(Cl)nc(N[C@H]4CC[C@H](NS(=O)(=O)C5CC5)CC4)c3)c2c1` [Example 218, N-(trans-4-{[6-chloro-4-(5-methoxy-1H-pyrrolo[2,3-b]pyridin-3-yl)pyridin-2-yl]amino}cyclohexyl)cyclopropanesulfonamide] cannot be ordered by Ki: less than 10 nM for the first, less than 10 nM for the second.

`COc1cnc2[nH]cc(-c3cc(Cl)nc(N[C@H]4CC[C@H](NS(C)(=O)=O)CC4)c3)c2c1` [Example 220, N-(trans-4-{[6-chloro-4-(5-methoxy-1H-pyrrolo[2,3-b]pyridin-3-yl)pyridin-2-yl]amino}cyclohexyl)methanesulfonamide] and `CC(=O)Nc1cnc2[nH]cc(-c3cc(Cl)nc(NC4CCCCC4)c3)c2c1` [Example 226, N-{3-[2-chloro-6-(cyclohexylamino)pyridin-4-yl]-1H-pyrrolo[2,3-b]pyridin-5-yl}acetamide] cannot be ordered by Ki: less than 10 nM for the first, less than 10 nM for the second.

`NS(=O)(=O)c1cccc(-c2cnc3[nH]cc(-c4cc(Cl)nc(NC5CCCCC5)c4)c3c2)c1` [Example 222, 3-{3-[2-chloro-6-(cyclohexylamino)pyridin-4-yl]-1H-pyrrolo[2,3-b]pyridin-5-yl}benzenesulfonamide] and `NS(=O)(=O)c1ccc(-c2cnc3[nH]cc(-c4cc(Cl)nc(NC5CCCCC5)c4)c3c2)cc1` [Example 223, 4-{3-[2-chloro-6-(cyclohexylamino)pyridin-4-yl]-1H-pyrrolo[2,3-b]pyridin-5-yl}benzenesulfonamide] cannot be ordered by Ki: less than 10 nM for the first, less than 10 nM for the second.

Compound `Nc1cnc2[nH]cc(-c3cc(Cl)nc(NC4CCCCC4)c3)c2c1` [Example 225, 3-[2-chloro-6-(cyclohexylamino)pyridin-4-yl]-1H-pyrrolo[2,3-b]pyridin-5-amine] has a Ki of less than 10 nM.
